What was measured:
[1] = cited from earlier work
[2] = Oxycodone degradation (DHOXY/OXY), effect of binder, 40° C., 75% RH open dish 8 days; format: physicochemical

SMILES	Solubility in water [1]	DHOXY/OXY (%), Physical Blend ([2]; 40° C., 75% RH, open-dish 8 days)	DHOXY/OXY (%), Physical Blend ([2]; t = 0)
COc1ccc2c3c1O[C@H]1C(=O)CC[C@H]4[C@@H](C2)N(C)CC[C@]314.O=C(O)C(O)C(O)C(=O)O [hydrocodone bitartrate]	62.5 mg/mL	–	–
COc1ccc2c3c1O[C@H]1C(=O)CC[C@@]4(O)[C@@H](C2)N(C)CC[C@]314.Cl [oxycodone HCl]	–	0.07%	0.07%
